Reference: patent US12459922B2 (Gilead Sciences, Inc., priority 2022, dated 2025)

test system: endogenous cellular STAT1 (phosphorylated at Tyr701) in NCI-H1373 cells; experiment: Phospho-STAT1 (Tyr701) LANCE Ultra TR-FRET Detection Assay; type: cell-based; conditions: Homo sapiens, NCI-H1373, 48 h, phospho-STAT1 (Tyr701) induction, read-out: NH1373 pSTAT1 EC50
Protocol: Phospho-STAT1 (Tyr701 LANCE Ultra TR-FRET Detection Assay
d. LANCE Ultra phospho-STAT1 (Tyr701) kits are designed for the detection of phosphorylated STAT1 in cell lysates using a simple, homogeneous LANCE Ultra sandwich assay (Cat. #TRF4028M). This assay is intended for assessing compound induction of endogenous levels of cellular STAT1 (phosphorylated at Tyr701) in NCI-H1373 cells. The NCI-H1373 cells are cultured in RPMI 1640 media containing 10% heat inactivated FBS, GlutaMAX, 1% Penicillin-Streptomycin. An Echo acoustic liquid handler is used to transfer 60 nanoliters of compound dilutions using the Echo Qualified, 384-well polypropylene microplate clear flat bottom source plates into a Greiner (#781080) cell culture microplate. NCI-H1373 cells are seeded into these compound-spotted culture plates at 30,000 cells/well in a 60 uL volume in growth media. The plates are incubated in a 5% CO2 humidified incubator at 37° C. for 48 hours. […] After spinning the plate down at 300 rpm for 1 min, the plate is read on an EnVision plate reader set up for Eu3+ Cryptate and fluorescence emission is measured at two different wavelengths (665 nm and 620 nm). The HTRF ratio is then calculated […] for each well to determine the amount of pSTAT1 in the cell lysate, and the data is then normalized to 10 uM GS-1154611 positive and DMSO negative controls.

Question: For C[C@@H](CCCn1ccc2cc(-c3nc(N)ccc3C#N)c(F)cc2c1=O)Nc1cn[nH]c(=O)c1C(F)(F)F [Example 291, (S)-6-amino-2-(7-fluoro-1-oxo-2-(4-((6-oxo-5-(trifluoromethyl)-1,6-dihydropyridazin-4-yl)amino)pentyl)-1,2-dihydroisoquinolin-6-yl)nicotinonitrile], which EC50 is on record?
Answer: 709 nM

Question: Nc1nc(-c2cc3ccn(C[C@@H]4CCC[C@H](Nc5cn[nH]c(=O)c5C(F)(F)F)C4)c(=O)c3cc2F)nc(C2CC2)c1Cl [Example 282, 6-(4-amino-5-chloro-6-cyclopropylpyrimidin-2-yl)-7-fluoro-2-(((1R,3S)-3-((6-oxo-5-(trifluoromethyl)-1,6-dihydropyridazin-4-yl)amino)cyclohexyl)methyl)isoquinolin-1(2H)-one] was tested. Which EC50 did it give?
Answer: 80.1 nM

Question: With Nc1nc(-c2cc3ccn(C[C@@H]4CCC[C@H](Nc5cn[nH]c(=O)c5C(F)(F)F)C4)c(=O)c3cc2F)ncc1C(F)F [Example 231, 6-(4-amino-5-(difluoromethyl)pyrimidin-2-yl)-7-fluoro-2-(((1R,3S)-3-((6-oxo-5-(trifluoromethyl)-1,6-dihydropyridazin-4-yl)amino)cyclohexyl)methyl)isoquinolin-1(2H)-one] as the molecule, how does the EC50 read?
Answer: 5.92 nM

Question: COc1cnc(-c2cc3ncn(CCC[C@@H]4C[C@@H](C)CN4c4cn[nH]c(=O)c4C(F)(F)F)c(=O)c3cc2F)nc1N [Example 177, 7-(4-amino-5-methoxypyrimidin-2-yl)-6-fluoro-3-[3-[(2R,4R)-4-methyl-1-[6-oxo-5-(trifluoromethyl)-1H-pyridazin-4-yl]pyrrolidin-2-yl]propyl]quinazolin-4-one] was tested. Which EC50 did it give?
Answer: 537 nM

Question: Which EC50 does the source give for CC[C@@H](CCCn1ccc2cc(-c3ncc(C(F)F)cn3)c(F)c(F)c2c1=O)Nc1cn[nH]c(=O)c1C(F)(F)F [Example 355, (S)-6-(5-(difluoromethyl)pyrimidin-2-yl)-7,8-difluoro-2-(4-((6-oxo-5-(trifluoromethyl)-1,6-dihydropyridazin-4-yl)amino)hexyl)isoquinolin-1(2H)-one] here?
Answer: 11.4 nM

Question: Which EC50 does the source give for O=c1[nH]ncc(N[C@H]2CC[C@@H]2CCn2cnc3cc(-c4ncc(C(F)(F)F)cn4)c(F)cc3c2=O)c1C(F)(F)F [Example 452, 6-fluoro-3-[2-[(1R,2S)-2-[[6-oxo-5-(trifluoromethyl)-1H-pyridazin-4-yl]amino]cyclobutyl]ethyl]-7-[5-(trifluoromethyl)pyrimidin-2-yl]quinazolin-4-one] here?
Answer: 35.9 nM

Question: For C[C@@H](CCCn1ccc2cc(-c3nc(N)c(C(F)(F)F)cc3C#N)c(F)cc2c1=O)Nc1cn[nH]c(=O)c1C(F)(F)F [Example 290, (S)-6-amino-2-(7-fluoro-1-oxo-2-(4-((6-oxo-5-(trifluoromethyl)-1,6-dihydropyridazin-4-yl)amino)pentyl)-1,2-dihydroisoquinolin-6-yl)-5-(trifluoromethyl)nicotinonitrile], which EC50 is on record?
Answer: 21.3 nM

Question: Which EC50 does the source give for CC[C@@H](CCCn1ccc2cc(-c3ncc(C(F)(F)F)cn3)c(F)c(F)c2c1=O)Nc1cn[nH]c(=O)c1C(F)(F)F [Example 353, (S)-7,8-difluoro-2-(4-((6-oxo-5-(trifluoromethyl)-1,6-dihydropyridazin-4-yl)amino)hexyl)-6-(5-(trifluoromethyl)pyrimidin-2-yl)isoquinolin-1(2H)-one] here?
Answer: 16.1 nM

Question: With Nc1nc(-c2cc3ccn(C[C@@H]4CCC[C@H](Nc5cn[nH]c(=O)c5C(F)(F)F)C4)c(=O)c3cc2F)ncc1OC(F)F [Example 260, 6-(4-amino-5-(difluoromethoxy)pyrimidin-2-yl)-7-fluoro-2-(((1R,3S)-3-((6-oxo-5-(trifluoromethyl)-1,6-dihydropyridazin-4-yl)amino)cyclohexyl)methyl)isoquinolin-1(2H)-one] as the molecule, how does the EC50 read?
Answer: 12.7 nM

Question: For C[C@@H](CCCn1ccc2cc(-c3ncc(C(F)(F)F)c(N4CC(C#N)C4)n3)c(F)cc2c1=O)Nc1cn[nH]c(=O)c1C(F)(F)F [Example 119, (S)-1-(2-(7-fluoro-1-oxo-2-(4-((6-oxo-5-(trifluoromethyl)-1,6-dihydropyridazin-4-yl)amino)pentyl)-1,2-dihydroisoquinolin-6-yl)-5-(trifluoromethyl)pyrimidin-4-yl)azetidine-3-carbonitrile], which EC50 is on record?
Answer: 3.36 nM

Question: Which EC50 does the source give for C[C@@H](Nc1cn[nH]c(=O)c1C(F)(F)F)/C(F)=C/Cn1ccc2cc(-c3ncc(C(F)(F)F)cn3)c(F)c(F)c2c1=O [Example 131, (R,Z)-7,8-difluoro-2-(3-fluoro-4-((6-oxo-5-(trifluoromethyl)-1,6-dihydropyridazin-4-yl)amino)pent-2-en-1-yl)-6-(5-(trifluoromethyl)pyrimidin-2-yl)isoquinolin-1(2H)-one] here?
Answer: 158 nM

Question: With [2H]C([2H])([2H])OC[C@@H](CCCn1cnc2cc(-c3ncc(C(F)(F)F)c(N)n3)c(F)cc2c1=O)Nc1cn[nH]c(=O)c1C(F)(F)F [Example 432] as the molecule, how does the EC50 read?
Answer: 12.7 nM

Question: COc1ncc(-c2cc3ccn(C[C@@H]4CCC[C@H](Nc5cn[nH]c(=O)c5C(F)(F)F)C4)c(=O)c3cc2F)nc1N [Example 263, 6-(6-amino-5-methoxypyrazin-2-yl)-7-fluoro-2-(((1R,3S)-3-((6-oxo-5-(trifluoromethyl)-1,6-dihydropyridazin-4-yl)amino)cyclohexyl)methyl)isoquinolin-1(2H)-one] was tested. Which EC50 did it give?
Answer: 122 nM

Question: C[C@@H](CCCn1ccc2cc(-c3nc(N)ncc3C(F)F)c(F)cc2c1=O)Nc1cn[nH]c(=O)c1C(F)(F)F [Example 105, 6-[2-amino-5-(difluoromethyl)pyrimidin-4-yl]-7-fluoro-2-[(4S)-4-[[6-oxo-5-(trifluoromethyl)-1H-pyridazin-4-yl]amino]pentyl]isoquinolin-1-one] was tested. Which EC50 did it give?
Answer: 465 nM

Question: C[C@@H](CCCn1ccc2cc(-c3ccc(C(F)F)cn3)c(F)c(F)c2c1=O)Nc1cn[nH]c(=O)c1C(F)(F)F [Example 51, (S)-6-(5-(difluoromethyl)pyridin-2-yl)-7,8-difluoro-2-(4-((6-oxo-5-(trifluoromethyl)-1,6-dihydropyridazin-4-yl)amino)pentyl)isoquinolin-1(2H)-one] was tested. Which EC50 did it give?
Answer: 44.9 nM

Question: With Cc1c[nH]c2nc(-c3cc4ncn(CCC[C@H](C)Nc5cn[nH]c(=O)c5C(F)(F)F)c(=O)c4cc3F)ncc12 [Example 63, 6-fluoro-7-(5-methyl-7H-pyrrolo[2,3-d]pyrimidin-2-yl)-3-[(4S)-4-[[6-oxo-5-(trifluoromethyl)-1H-pyridazin-4-yl]amino]pentyl]quinazolin-4-one] as the molecule, how does the EC50 read?
Answer: 7.15 nM

Question: COc1cnc(-c2cc3ccn(C[C@@H]4CCC[C@H](Nc5cn[nH]c(=O)c5C(F)(F)F)C4)c(=O)c3c(F)c2F)nc1N [Example 278, 6-(4-amino-5-methoxypyrimidin-2-yl)-7,8-difluoro-2-(((1R,3S)-3-((6-oxo-5-(trifluoromethyl)-1,6-dihydropyridazin-4-yl)amino)cyclohexyl)methyl)isoquinolin-1(2H)-one] was tested. Which EC50 did it give?
Answer: 4.38 nM

Question: For C[C@@H](CCCn1ccc2cc(-c3ncc([N+](=O)[O-])c(N)n3)c(F)cc2c1=O)Nc1cn[nH]c(=O)c1C(F)(F)F [Example 111, 6-(4-amino-5-nitro-pyrimidin-2-yl)-7-fluoro-2-[(4S)-4-[[6-oxo-5-(trifluoromethyl)-1H-pyridazin-4-yl]amino]pentyl]isoquinolin-1-one], which EC50 is on record?
Answer: 6.67 nM

Question: How did the EC50 turn out when O=c1[nH]ncc(N2Cc3ccccc3[C@H]2CCCn2ccc3cc(-c4ncc(C(F)(F)F)cn4)c(F)cc3c2=O)c1C(F)(F)F [Example 182, 7-fluoro-2-[3-[(1R)-2-[6-oxo-5-(trifluoromethyl)-1H-pyridazin-4-yl]isoindolin-1-yl]propyl]-6-[5-(trifluoromethyl)pyrimidin-2-yl]isoquinolin-1-one] was run?
Answer: 82.5 nM

Question: Which EC50 does the source give for O=c1[nH]ncc(N[C@H]2CCC[C@@H](Cn3ccc4cc(-c5cnc(C6COC6)cn5)c(F)cc4c3=O)C2)c1C(F)(F)F [Example 266, 7-fluoro-6-(5-(oxetan-3-yl)pyrazin-2-yl)-2-(((1R,3S)-3-((6-oxo-5-(trifluoromethyl)-1,6-dihydropyridazin-4-yl)amino)cyclohexyl)methyl)isoquinolin-1(2H)-one] here?
Answer: 187 nM

Question: Which EC50 does the source give for Nc1nc(-c2cc3ccn(C[C@@H]4CCC[C@H](Nc5cn[nH]c(=O)c5C(F)(F)F)C4)c(=O)c3cc2F)ncc1Cl [Example 250, 6-(4-amino-5-chloropyrimidin-2-yl)-7-fluoro-2-(((1R,3S)-3-((6-oxo-5-(trifluoromethyl)-1,6-dihydropyridazin-4-yl)amino)cyclohexyl)methyl)isoquinolin-1(2H)-one] here?
Answer: 4.71 nM

Question: For O=c1[nH]ncc(N[C@H]2CCC[C@@H](Cn3ccc4cc(-c5cc6c(cn5)C(F)(F)CC6)c(F)cc4c3=O)C2)c1C(F)(F)F [Example 496, 6-(7,7-difluoro-5,6-dihydrocyclopenta[c]pyridin-3-yl)-7-fluoro-2-[[(1R,3S)-3-[[6-oxo-5-(trifluoromethyl)-1H-pyridazin-4-yl]amino]cyclohexyl]methyl]isoquinolin-1-one], which EC50 is on record?
Answer: 5.5 nM

Question: With COc1cnc(-c2cc3ccn(C[C@@H]4CCC[C@H](Nc5cn[nH]c(=O)c5C(F)(F)F)C4)c(=O)c3cc2F)nc1N [Example 255, 6-(4-amino-5-methoxypyrimidin-2-yl)-7-fluoro-2-(((1R,3S)-3-((6-oxo-5-(trifluoromethyl)-1,6-dihydropyridazin-4-yl)amino)cyclohexyl)methyl)isoquinolin-1(2H)-one] as the molecule, how does the EC50 read?
Answer: 9.1 nM
